From publication PMC10974284, “Discovery of Novel 4-Hydroxyquinazoline Derivatives: In Silico, In Vivo and In Vitro Studies Using Primary PARPi-Resistant Cell Lines” (Molecules, 2024)
Read-outs that look alike come from different tables or passages of the source.

Assays:
[1] = test system: HCT-15 cell lines; assay: MTT cytotoxicity assay, HCT-15; type: cell-based, human; details: for IC50 / inhibition at 50 µM: Homo sapiens; for IC50: read-out: IC50 HCT-15; for inhibition at 50 µM: read-out: Inhibition rate (%) HCT-15
Description: (§1) After treatment with target compounds at the different concentrations, MTT was added and the cells were incubated for another 4 h. The IC50 values of the selected compounds were evaluated by the same method. The cells were treated with compounds at different concentrations. The OD values were detected using a microplate reader at 570 nm.

[2] = test system: HCC1937 cell lines; assay: MTT cytotoxicity assay, HCC1937; type: cell-based, human; details: for IC50 / inhibition at 50 µM: Homo sapiens; for IC50: read-out: IC50 HCC1937; for inhibition at 50 µM: read-out: Inhibition rate (%) HCC1937
Description: as §1

[3] = HCT-15, 72 h (3-Days) drug exposure, MTT
[4] = HCC1937, 72 h (3-Days) drug exposure, MTT

| SMILES | melting point [°C] | IC50 [1, 3] [µM] | IC50 [2, 4] [µM] | other results |
| --- | --- | --- | --- | --- |
| Cc1cccc(NC(=O)N2CCN(Cc3nc4ccccc4c(=O)[nH]3)CC2)c1F [A21, N-(2-fluoro-3-methylphenyl)-4-((4-oxo-3,4-dihydroquinazolin-2-yl)methyl)piperazine-1-carboxamide] | 200.5 to 202.1 | 28.3 ± 1.55 | > 50 |  |
| C[C@H](CCC(=O)O)[C@H]1CC[C@H]2[C@@H]3C(=O)C[C@@H]4CC(=O)CC[C@]4(C)[C@H]3CC(=O)[C@]12C [compound 35] |  |  |  | Inhibition rate (%) HCT-15 ([1]; 50 μM, 72 h, MTT): 12.3%; Inhibition rate (%) HCC1937 ([2]; 50 μM, 72 h, MTT): 21.4% |
| Cc1ccccc1NC(=O)N1CCN(Cc2nc3ccccc3c(=O)[nH]2)CC1 [A10, 4-((4-oxo-3,4-dihydroquinazolin-2-yl)methyl)-N-(o-tolyl)piperazine-1-carboxamide] | 199.9 to 201.6 | 15.9 ± 0.85 | 14.7 ± 1.03 |  |
| Cc1ccc(NC(=O)N2CCN(Cc3nc4ccccc4c(=O)[nH]3)CC2)cc1 [A12, 4-((4-oxo-3,4-dihydroquinazolin-2-yl)methyl)-N-(p-tolyl)piperazine-1-carboxamide] | 197.7 to 199.5 | > 50 | > 50 |  |
| O=C(Nc1ccc(C(F)(F)F)cc1F)N1CCN(Cc2nc3ccccc3c(=O)[nH]2)CC1 [A24, N-(2-fluoro-4-(trifluoromethyl)phenyl)-4-((4-oxo-3,4-dihydroquinazolin-2-yl)methyl)piperazine-1-carboxamide] | 202.3 to 203.9 | 22.8 ± 1.82 | 44.1 ± 2.19 |  |
| Cc1c(F)cccc1NC(=O)N1CCN(Cc2nc3ccccc3c(=O)[nH]2)CC1 [A28, N-(3-fluoro-2-methylphenyl)-4-((4-oxo-3,4-dihydroquinazolin-2-yl)methyl)piperazine-1-carboxamide] | 198.9 to 200.6 | 30.3 ± 3.3 | > 50 |  |
| O=C(Nc1cc(C(F)(F)F)ccc1Cl)N1CCN(Cc2nc3ccccc3c(=O)[nH]2)CC1 [A26, N-(2-chloro-5-(trifluoromethyl)phenyl)-4-((4-oxo-3,4-dihydroquinazolin-2-yl)methyl)piperazine-1-carboxamide] | 191.2 to 193.9 | 37.3 ± 2.76 | > 50 |  |
| Cc1cc(C)cc(NC(=O)N2CCN(Cc3nc4ccccc4c(=O)[nH]3)CC2)c1 [A38, N-(3,5-dimethylphenyl)-4-((4-oxo-3,4-dihydroquinazolin-2-yl)methyl)piperazine-1-carboxamide] | 201.5 to 203.3 | 18 ± 0.88 | 17.9 ± 1.32 |  |
| Cc1ccc(Cl)cc1NC(=O)N1CCCN(Cc2nc3ccccc3c(=O)[nH]2)CC1 [B4, N-(5-chloro-2-methylphenyl)-4-((4-oxo-3,4-dihydroquinazolin-2-yl)methyl)-1,4-diazepane-1-carboxamide] | 186.6 to 187.9 | 5.65 ± 1.29 | 5.77 ± 0.99 |  |
| CC(C)(C)OC(=O)N1CCN(Cc2nc3ccccc3c(=O)[nH]2)CC1 [compound 3] |  |  |  | inhibition at 50 µM ([1]; HCT-15, 50 μM, 72 h, MTT): 52.3%; inhibition at 50 µM ([2]; HCC1937, 50 μM, 72 h, MTT): 19.5% |
| O=C(Nc1ccc(F)c(Cl)c1)N1CCN(Cc2nc3ccccc3c(=O)[nH]2)CC1 [A36, N-(3-chloro-4-fluorophenyl)-4-((4-oxo-3,4-dihydroquinazolin-2-yl)methyl)piperazine-1-carboxamide] | 200.1 to 202.7 | 25.2 ± 1.66 | > 50 |  |
| Oc1ccc(N2CCNCC2)cc1 [compound 23] |  |  |  | Inhibition rate (%) HCT-15 ([1]; 50 μM, 72 h, MTT): 41.9%; Inhibition rate (%) HCC1937 ([2]; 50 μM, 72 h, MTT): 9.2% |
| O=C(Nc1ccc(F)cc1)N1CCN(Cc2nc3ccccc3c(=O)[nH]2)CC1 [A3, N-(4-fluorophenyl)-4-((4-oxo-3,4-dihydroquinazolin-2-yl)methyl)piperazine-1-carboxamide] | 196.5 to 197.8 | > 50 | > 50 |  |
| COc1cccc(NC(=O)N2CCN(Cc3nc4ccccc4c(=O)[nH]3)CC2)c1 [A17, N-(3-methoxyphenyl)-4-((4-oxo-3,4-dihydroquinazolin-2-yl)methyl)piperazine-1-carboxamide] | 186.3 to 188.5 | > 50 | > 50 |  |
| Cc1c(Br)cccc1NC(=O)N1CCN(Cc2nc3ccccc3c(=O)[nH]2)CC1 [A31, N-(3-bromo-2-methylphenyl)-4-((4-oxo-3,4-dihydroquinazolin-2-yl)methyl)piperazine-1-carboxamide] | 200.6 to 202.2 | > 50 | > 50 |  |
| COc1ccc(NC(=O)N2CCN(Cc3nc4ccccc4c(=O)[nH]3)CC2)cc1 [A18, N-(4-methoxyphenyl)-4-((4-oxo-3,4-dihydroquinazolin-2-yl)methyl)piperazine-1-carboxamide] | 184.9 to 186.9 | > 50 | > 50 |  |
| O=C(Nc1cc(F)cc(F)c1)N1CCN(Cc2nc3ccccc3c(=O)[nH]2)CC1 [A34, N-(3,5-difluorophenyl)-4-((4-oxo-3,4-dihydroquinazolin-2-yl)methyl)piperazine-1-carboxamide] | 199.8 to 200.2 | 47.2 ± 3.35 | > 50 |  |
| O=C(Nc1ccccc1C(F)(F)F)N1CCN(Cc2nc3ccccc3c(=O)[nH]2)CC1 [A13, 4-((4-oxo-3,4-dihydroquinazolin-2-yl)methyl)-N-(2-(trifluoromethyl)phenyl) piperazine-1-carboxamide] | 200.1 to 201.2 | 20.2 ± 0.78 | > 50 |  |
| O=c1[nH]c(CCl)nc2ccccc12 [compound 2] |  |  |  | inhibition at 50 µM ([1]; HCT-15, 50 μM, 72 h, MTT): 31.9%; inhibition at 50 µM ([2]; HCC1937, 50 μM, 72 h, MTT): 10.3% |
| Cc1ccc2c(=O)[nH]c(CN3CC4CC(C3)N4C(=O)Nc3cc(Cl)ccc3C)nc2c1 [C3, N-(5-chloro-2-methylphenyl)-3-((7-methyl-4-oxo-3,4-dihydroquinazolin-2-yl)methyl)-3,6-diazabicyclo[3.1.1]heptane-6-carboxamide] | 197.7 to 199.3 |  |  | IC50 ([1]; HCT-15, 72 h): 28.4 ± 2.87 µM; IC50 ([2]; HCC1937, 72 h): 30.1 ± 3.12 µM |
| O=C(Nc1ccccc1F)N1CCN(Cc2nc3ccccc3c(=O)[nH]2)CC1 [A1, N-(2-fluorophenyl)-4-((4-oxo-3,4-dihydroquinazolin-2-yl)methyl)piperazine-1-carboxamide] | 192.5 to 194.2 | 18.4 ± 0.91 | 16.6 ± 1.12 |  |
| O=C(Nc1ccc(Cl)cc1)N1CCN(Cc2nc3ccccc3c(=O)[nH]2)CC1 [A6, N-(4-chlorophenyl)-4-((4-oxo-3,4-dihydroquinazolin-2-yl)methyl)piperazine-1-carboxamide] | 189.8 to 191.4 | 21.4 ± 0.86 | > 50 |  |
| O=C(Nc1ccccc1Br)N1CCN(Cc2nc3ccccc3c(=O)[nH]2)CC1 [A7, N-(2-bromophenyl)-4-((4-oxo-3,4-dihydroquinazolin-2-yl)methyl)piperazine-1-carboxamide] | 195.1 to 196.7 | 29.6 ± 1.37 | 40.3 ± 3.32 |  |
| COC(=O)c1ccccc1N [compound 1] |  |  |  | inhibition at 50 µM ([1]; HCT-15, 72 h): 13.7%; inhibition at 50 µM ([2]; HCC1937, 72 h): 12.7% |
| Cc1ccc(NC(=O)N2CCN(Cc3nc4ccccc4c(=O)[nH]3)CC2)cc1C [A37, N-(3,4-dimethylphenyl)-4-((4-oxo-3,4-dihydroquinazolin-2-yl)methyl)piperazine-1-carboxamide] | 194.4 to 196.1 | 22.5 ± 1.49 | 46.4 ± 2.96 |  |
| Cc1ccc(NC(=O)N2CCN(Cc3nc4ccccc4c(=O)[nH]3)CC2)c(F)c1 [A22, N-(2-fluoro-4-methylphenyl)-4-((4-oxo-3,4-dihydroquinazolin-2-yl)methyl)piperazine-1-carboxamide] | 198.4 to 200.7 | 21.7 ± 1.16 | > 50 |  |
| Cc1ccc(Cl)cc1NC(=O)N1C2CC1CN(Cc1nc3cc(F)c(F)cc3c(=O)[nH]1)C2 [C5, N-(5-chloro-2-methylphenyl)-3-((6,7-difluoro-4-oxo-3,4-dihydroquinazolin-2-yl)methyl)-3,6-diazabicyclo[3.1.1]heptane-6-carboxamide] | 194.4 to 195.8 |  |  | IC50 ([1]; HCT-15, 72 h): 29.6 ± 2.16 µM; IC50 ([2]; HCC1937, 72 h): 55 ± 4.28 µM |
| Cc1ccc(-c2cc(C(F)(F)F)nn2-c2ccc(S(N)(=O)=O)cc2)cc1 [compound 54] |  |  |  | Inhibition rate (%) HCT-15 ([1]; 50 μM, 72 h, MTT): 33.5%; Inhibition rate (%) HCC1937 ([2]; 50 μM, 72 h, MTT): 33.1% |
| O=c1[nH]c(=O)n([C@H]2C[C@H](O)[C@@H](CO)O2)cc1/C=C/Br [compound 33] |  |  |  | Inhibition rate (%) HCT-15 ([1]; 50 μM, 72 h, MTT): 28.5%; Inhibition rate (%) HCC1937 ([2]; 50 μM, 72 h, MTT): 17.3% |
| O=c1[nH]c(CN2CCNCC2)nc2ccccc12 [compound 4] |  |  |  | inhibition at 50 µM ([1]; HCT-15, 50 μM, 72 h, MTT): 48.9%; inhibition at 50 µM ([2]; HCC1937, 50 μM, 72 h, MTT): 16.5% |
